From patent US10407410B2, “Pyridin-3-yl acetic acid derivatives as inhibitors of human immunodeficiency virus replication” (priority 2016, dated 2019)

System: NL-RLuc virus (HIV)
Test: Inhibition of HIV replication (NL-RLuc luciferase reporter virus in MT-2 cells)
Type: cell-based
Conditions: Human immunodeficiency virus 1, MT2, 120 h
Description: Inhibition of HIV Replication
A recombinant NL-RLuc proviral clone was constructed in which a section of the nef gene from NL4-3 was replaced with the Renilla Luciferase gene. This virus is fully infectious and can undergo multiple cycles of replication in cell culture. In addition, the luciferous reporter provides a simple and easy method for quantitating the extent of virus growth and consequently, the antiviral activity of test compounds. The plasmid pNLRLuc contains the proviral NL-Rluc DNA cloned into pUC18 at the PvuII site. The NL-RLuc virus was prepared by transfection of 293T cells with the plasmid pNLRLuc. Transfections were performed using the LipofectAMINE PLUS kit from Invitrogen (Carlsbad, Calif.) according to the manufacturer and the virus generated was titered in MT-2 cells. For susceptibility analyses, the titrated virus was used to infect MT-2 cells in the presence of compound, and after 5 days of incubation, cells were processed and quantitated for virus growth by the amount of expressed luciferase. Assay media was RPMI 1640 supplemented with 10% heat inactivated fetal bovine serum (FBS), 100 units/ml penicillin G/100 units/ml streptomycin, 10 mM HEPES buffer pH 7.55 and 2 mM L-glutamine. The results from at least 2 experiments were used to calculate the EC50 values. Luciferase was quantitated using the Dual Luciferase kit from Promega (Madison, Wis.). Susceptibility of viruses to compounds was determined by incubation in the presence of serial dilutions of the compound. The 50% effective concentration (EC50) was calculated by using the exponential form of the median effect equation where (Fa)=1/[1+(ED50/drug conc.)^m] (Johnson V A, Byington R T. Infectivity Assay. In Techniques in HIV Research. ed. Aldovini A, Walker B D. 71-76. New York: Stockton Press. 1990).

SMILES	EC50 [nM]
Cc1nc(C)c([C@H](OC(C)(C)C)C(=O)O)c(N2CCC(C)(C)CC2)c1-c1ccc2c(c1)CN(Cc1ccc(F)cc1)C2=O [Example 13, (S)-2-(tert-butoxy)-2-(4-(4,4-dimethylpiperidin-1-yl)-5-(2-(4-fluorobenzyl)-1-oxoisoindolin-5-yl)-2,6-dimethylpyridin-3-yl)acetic acid]	12
Cc1nc(C)c([C@H](OC(C)(C)C)C(=O)O)c(N2CCC(C)(C)CC2)c1-c1ccc2c(c1)CCN(Cc1ccc(F)cc1)C2=O [Example 14, (S)-2-(tert-butoxy)-2-(4-(4,4-dimethylpiperidin-1-yl)-5-(2-(4-fluorobenzyl)-1-oxo-1,2,3,4-tetrahydroisoquinolin-6-yl)-2,6-dimethylpyridin-3-yl)acetic acid]	6
Cc1nc(C)c([C@H](OC(C)(C)C)C(=O)O)c(N2CCC(C)(C)CC2)c1-c1ccc2c(c1)CCN(Cc1nccs1)C2=O [Example 15, (S)-2-(tert-butoxy)-2-(4-(4,4-dimethylpiperidin-1-yl)-2,6-dimethyl-5-(1-oxo-2-(thiazol-2-ylmethyl)-1,2,3,4-tetrahydroisoquinolin-6-yl)pyridin-3-yl)acetic acid]	14
Cc1ncsc1CN1CCc2cc(-c3c(C)nc(C)c([C@H](OC(C)(C)C)C(=O)O)c3N3CCC(C)(C)CC3)ccc2C1=O [Example 16, (S)-2-(tert-butoxy)-2-(4-(4,4-dimethylpiperidin-1-yl)-2,6-dimethyl-5-(2-((4-methylthiazol-5-yl)methyl)-1-oxo-1,2,3,4-tetrahydroisoquinolin-6-yl)pyridin-3-yl)acetic acid]	6
Cc1nc(C)c([C@H](OC(C)(C)C)C(=O)O)c(N2CCC(C)(C)CC2)c1-c1ccc2c(c1)CCN(Cc1cscn1)C2=O [Example 17, (S)-2-(tert-butoxy)-2-(4-(4,4-dimethylpiperidin-1-yl)-2,6-dimethyl-5-(1-oxo-2-(thiazol-4-ylmethyl)-1,2,3,4-tetrahydroisoquinolin-6-yl)pyridin-3-yl)acetic acid]	24
Cc1nc(C)c([C@H](OC(C)(C)C)C(=O)O)c(N2CCC(C)(C)CC2)c1-c1ccc2[nH]c(=O)cc(OCc3ccc(F)cc3)c2c1 [Example 18, (S)-2-(tert-butoxy)-2-(4-(4,4-dimethylpiperidin-1-yl)-5-(4-((4-fluorobenzyl)oxy)-2-oxo-1,2-dihydroquinolin-6-yl)-2,6-dimethylpyridin-3-yl)acetic acid]	504
Cc1nc(C)c([C@H](OC(C)(C)C)C(=O)O)c(N2CCC(C)(C)CC2)c1-c1ccc2c(c1)C(=O)C(Cc1ccc(F)cc1)(Cc1ccc(F)cc1)C(=O)N2 [Example 19, (S)-2-(5-(3,3-bis(4-fluorobenzyl)-2,4-dioxo-1,2,3,4-tetrahydroquinolin-6-yl)-4-(4,4-dimethylpiperidin-1-yl)-2,6-dimethylpyridin-3-yl)-2-(tert-butoxy)acetic acid]	240
Cc1nc(C)c([C@H](OC(C)(C)C)C(=O)O)c(N2CCC(C)(C)CC2)c1-c1ccc2c(c1)c(OCc1ccc(F)cc1)cc(=O)n2C [Example 20, (S)-2-(tert-butoxy)-2-(4-(4,4-dimethylpiperidin-1-yl)-5-(4-((4-fluorobenzyl)oxy)-1-methyl-2-oxo-1,2-dihydroquinolin-6-yl)-2,6-dimethylpyridin-3-yl)acetic acid]	87
Cc1nc(C)c([C@H](OC(C)(C)C)C(=O)O)c(N2CCC(C)(C)CC2)c1-c1ccc2c(c1)CN(Cc1ccc(F)cc1)C2 [Example 21, (S)-2-(tert-butoxy)-2-(4-(4,4-dimethylpiperidin-1-yl)-5-(2-(4-fluorobenzyl)isoindolin-5-yl)-2,6-dimethylpyridin-3-yl)acetic acid]	30
Cc1nc(C)c([C@H](OC(C)(C)C)C(=O)O)c(N2CCC(C)(C)CC2)c1-c1ccc2c(c1)CN(C(=O)c1ccc(F)cc1)C2 [Example 22, (S)-2-(tert-butoxy)-2-(4-(4,4-dimethylpiperidin-1-yl)-5-(2-(4-fluorobenzoyl)isoindolin-5-yl)-2,6-dimethylpyridin-3-yl)acetic acid]	53
CCOc1ccc(S(=O)(=O)N2Cc3ccc(-c4c(C)nc(C)c([C@H](OC(C)(C)C)C(=O)O)c4N4CCC(C)(C)CC4)cc3C2)cc1 [Example 23, (S)-2-(tert-butoxy)-2-(4-(4,4-dimethylpiperidin-1-yl)-5-(2-((4-ethoxyphenyl)sulfonyl)isoindolin-5-yl)-2,6-dimethylpyridin-3-yl)acetic acid]	17
COc1ccc(S(=O)(=O)N2Cc3ccc(-c4c(C)nc(C)c([C@H](OC(C)(C)C)C(=O)O)c4N4CCC(C)(C)CC4)cc3C2)cc1 [Example 24, (S)-2-(tert-butoxy)-2-(4-(4,4-dimethylpiperidin-1-yl)-5-(2-((4-methoxyphenyl)sulfonyl)isoindolin-5-yl)-2,6-dimethylpyridin-3-yl)acetic acid]	10
Cc1nc(C)c([C@H](OC(C)(C)C)C(=O)O)c(N2CCC(C)(C)CC2)c1-c1ccc2c(c1)CC/C(=C\c1ccc(F)cc1)C2 [Example 25, (S,E)-2-(tert-Butoxy)-2-(4-(4,4-dimethylpiperidin-1-yl)-5-(6-(4-fluorobenzylidene)-5,6,7,8-tetrahydronaphthalen-2-yl)-2,6-dimethylpyridin-3-yl)acetic acid]	5
Cc1nc(C)c([C@H](OC(C)(C)C)C(=O)O)c(N2CCC(C)(C)CC2)c1-c1ccc2c(c1)CCC(Cc1ccc(F)cc1)C2 (stereo partly drawn) [Example 26, (2S)-2-(tert-Butoxy)-2-(4-(4,4-dimethylpiperidin-1-yl)-5-(6-(4-fluorobenzyl)-5,6,7,8-tetrahydronaphthalen-2-yl)-2,6-dimethylpyridin-3-yl)acetic acid]	10
Cc1nc(C)c([C@H](OC(C)(C)C)C(=O)O)c(N2CCC(C)(C)CC2)c1-c1ccc2c(c1)CCC(Oc1ccc(F)cc1)C2 (stereo partly drawn) [Example 27, (2S)-2-(tert-Butoxy)-2-(4-(4,4-dimethylpiperidin-1-yl)-5-(6-(4-fluorophenoxy)-5,6,7,8-tetrahydronaphthalen-2-yl)-2,6-dimethylpyridin-3-yl)acetic acid]	6
Cc1nc(C)c([C@H](OC(C)(C)C)C(=O)O)c(N2CCC(C)(C)CC2)c1-c1ccc2c(c1)CC[C@@H](Cc1ccc(F)c(F)c1)O2 [Example 28, (S)-2-tert-Butoxy-2-(5-((S)-2-(3,4-difluorobenzyl)chroman-6-yl)-4-(4,4-dimethylpiperidin-1-yl)-2,6-dimethylpyridin-3-yl)acetic acid]	2
Cc1nc(C)c([C@H](OC(C)(C)C)C(=O)O)c(N2CCC(C)(C)CC2)c1-c1ccc2c(c1)CC[C@H](Cc1ccc(F)c(F)c1)O2 [Example 29, (S)-2-tert-Butoxy-2-(5-((R)-2-(3,4-difluorobenzyl)chroman-6-yl)-4-(4,4-dimethylpiperidin-1-yl)-2,6-dimethylpyridin-3-yl)acetic acid]	5
Cc1ccc(C[C@@H]2CCc3cc(-c4c(C)nc(C)c([C@H](OC(C)(C)C)C(=O)O)c4N4CCC(C)(C)CC4)ccc3O2)c(F)c1 [Example 30, (S)-2-tert-Butoxy-2-(4-(4,4-dimethylpiperidin-1-yl)-5-((S)-2-(2-fluoro-4-methylbenzyl)chroman-6-yl)-2,6-dimethylpyridin-3-yl)acetic acid]	5
